Measurements as given in US11549147B2, “Treatment of atopic dermatitis with tradipitant” (VANDA PHARMACEUTICALS INC., priority 2017, dated 2023).

Tests used:
Type in all cases: in vivo, human
[1] = Plasma concentration levels of tradipitant in healthy subjects (Example 2)
Description: A study is conducted in which healthy subject participants are orally administered 85 mg tradipitant on study day 3, and then 85 mg tradipitant Q12H on study days 4-16. Plasma concentration levels of tradipitant are measured on each of day 3, day 7, and day 11.
This study illustrates that administration of 85 mg tradipitant qd (on day 3) produces an average plasma concentration over hours 0-12 that is about 50% of the plasma concentration observed in the PM group in Example 1. On days 7 and 11, the average plasma concentration over hours 0-12 following administration of 85 mg bid (specifically, Q12H) tradipitant is about 150% of the plasma concentration observed in the PM group in Example 1. The average plasma concentration over hours 0-12 at each point is determined by dividing the AUC for hours 0-12 (in (hr.)×(ng/mL)) by 12 hours.

[2] = Plasma levels of tradipitant at time of efficacy evaluation, PK analysis (Example 1); conditions: 100 mg qd
Description: Baseline VAS scores are 76.1 and 77.2 for the tradipitant and placebo arms respectively. Efficacy is evaluated through a number of clinical research instruments. In addition, at the time of efficacy evaluation blood samples are collected for PK analysis in order to determine the plasma levels of tradipitant.
The average plasma concentrations of tradipitant across AM and PM-evaluated patients are between about 125 ng/mL and about 225 ng/mL. Patients evaluated in the afternoons (PM) (mean=about 20 hours post last administration) tend to have lower plasma concentrations of tradipitant than patients evaluated in the mornings (AM) (mean=about 15 hours post last administration). The average plasma concentration in the PM group is about 125 ng/mL, and the average plasma concentration in the AM group is about 225 ng/mL, the difference being largely attributable to the length of time post-administration.

[3] = system: responders and non-responders to tradipitant treatment of atopic dermatitis; test: Association analysis of genetic markers with VAS response to tradipitant treatment (Example 6, Tables 10-11)
Description: A further study is performed to identify additional genetic markers that correlate directly with a positive response to tradipitant treatment. To identify the genetic markers, an association analysis is conducted using a logistic additive model. Visual Analog Scale (VAS) is used as the response outcome metric. The identified variants are shown below in Table 10.
Using the top significant SNPs chosen by p-value cutoff, individuals are classified on responder status to tradipitant treatment, with AUC of 0.95 (10 fold cross validation). Loss of function (LOF) and protein coding variants are investigated in terms of VAS outcomes on the cohort of cases.

SMILES: O=C(c1ccccc1Cl)c1cccnc1-c1nnn(Cc2cc(C(F)(F)F)cc(C(F)(F)F)c2)c1-c1ccncc1 [Tradipitant]
- average plasma concentration over hours 0-12 relative to the PM group in Example 1 ([1]; 85 mg bid (Q12H), days 7 and 11): about 150%
- average plasma concentration over hours 0-12 relative to the PM group in Example 1 ([1]; 85 mg qd, day 3): about 50%
- average plasma concentration ([2]; AM group, mean about 15 hours post last administration): about 225 ng/mL
- plasma concentration at which patients tend to show greater efficacy ([2]; PK-efficacy correlation): > 100 ng/mL
- average plasma concentration ([2]; PM group, mean about 20 hours post last administration): about 125 ng/mL
- response to tradipitant treatment of atopic dermatitis by genotype ([3]; CTNNA3 rs57930837 AA genotype): a majority of rs57930837 AA individuals do not respond to treatment
- response to tradipitant treatment of atopic dermatitis by genotype ([3]; CTNNA3 rs57930837 CA genotype): a majority of individuals having a CA rs57930837 genotype respond to treatment
- response to tradipitant treatment of atopic dermatitis by genotype ([3]; CTNNA3 rs57930837 CC genotype): all individuals having a CC rs57930837 genotype respond to treatment
